EC50 and ED50 for FVII gene silencing data for 2 compounds are collected here from patent US20240383843A1, “MC3-Type Lipids” (NanoVation Therapeutics Inc., priority 2021, published 2024).

For assay [1], the system named is 22Rv1 cells modified to stably express luciferase. The experiment in a line: Luciferase knockdown by siRNA-containing LNPs in 22Rv1 cells stably expressing luciferase. The settings on record: Homo sapiens, siRNA-LNP 50/10/38.5/1.5 mol %, N/P 3, read-out: half maximal effective siRNA concentration (EC50). The assay is classed as cell-based. As for the experimental part:
The LNPs contain 50/10/38.5/1.5 mol % of ionizable lipid/DSPC/chol/PEG-DMG (N/P=3) and the siRNA encodes luciferase.
An siRNA targeted against firefly luciferase purchased from Integrated DNA Technologies (IDT, Coralville, IA) was used to assess ability of LNP to knockdown firefly luciferase in a cell line.
LNP formulations containing the ionizable lipids, nor-MC3 or MC3, DSPC, cholesterol, and PEG-DMG were prepared containing siRNA encoding luciferase as described above. The lipid nanoparticles comprise 50/10/38.5/1.5 mol % of ionizable lipid/DSPC/chol/PEG-DMG and the nitrogen-to-phosphorus ratio (N/P) was 3.

Assay [2] has as its system FVII gene. The settings on record: mice, siRNA formulation; Jayaraman et al., 2012; cited from earlier work.

≈ marks a conversion by molar mass, not a printed value.

As for `CCCCC/C=C\C/C=C\CCCCCCCC(CCCCCCC/C=C\C/C=C\CCCCC)OC(=O)CCCN(C)C` [nor-MC3, (6Z,9Z,26Z,29Z)-Pentatriaconta-6,9,26,29-tetraen-18-yl 4-(dimethylamino)butanoate], the EC50 in assay [1] was 0.164 µg/mL (≈ 0.268 µM).
For `CCCCC/C=C\C/C=C\CCCCCCCCC1(CCCCCCCC/C=C\C/C=C\CCCCC)OCC(CCN(C)C)O1` (centres unmarked) [KC2], in assay [2], the ED50 for FVII gene silencing was 0.1 mg/kg.
